Data reported in patent US10253007B2, “Taxanes compounds, preparation method therefor, and uses thereof” (Jiangsu Tasly Diyi Pharmaceutical Co., Ltd., priority 2013, dated 2019).

What was measured:
Format in all cases: cell-based
[1] = MTT assay, proliferation inhibition; settings: Homo sapiens, LN-18 gastric cancer, read-out: Proliferation inhibition rate
Description: (§1) 1. Cytotoxicity Assay Using Human Tumor Cell Lines
(§2) Paclitaxel was used as the positive drug.

A375 melanoma = assay: MTT assay, proliferation inhibition; settings: Homo sapiens, A-375, read-out: Proliferation inhibition rate
Description: as §1, §2

[2] = test system: A549 non-small cell lung cancer; assay: MTT assay, proliferation inhibition; settings: Homo sapiens, read-out: Proliferation inhibition rate
Description: as §1, §2

B16 melanoma = assay: MTT assay, proliferation inhibition; settings: read-out: Proliferation inhibition rate
Description: as §1, §2

DU145 prostate cancer = assay: MTT assay, proliferation inhibition; settings: Homo sapiens, DU-145, read-out: Proliferation inhibition rate
Description: as §1, §2

In the case of `CO[C@H]1C(=O)[C@]2(C)[C@@H](OC(=O)N(C)C)C[C@H]3OC[C@@]3(OC(C)=O)[C@H]2[C@H](OC(=O)c2ccccc2)[C@]2(O)C[C@H](OC(=O)[C@H](O)[C@@H](NC(=O)OC(C)(C)C)c3ccccc3)C(C)=C1C2(C)C` [PCMI-31], the inhibition at 1 µM [1] is reported as 95.6%, the inhibition at 1 µM (A375 melanoma) is reported as 88.4% and the inhibition at 1 µM [2] is reported as 76%. For the same molecule, the inhibition at 1 µM (B16 melanoma) was 81.8% and the inhibition at 1 µM (DU145 prostate cancer) was 85.8%.
